Data from patent publication US10933030B2, “Use of paeonol for inhibiting angiogenesis or for enhancing radiosensitization” (priority 2005, dated 2021).

Assays:
B16BL6 melanoma cells [1] = assay: Tumor growth, paeonol in combination with 5-FU; type: in vivo; details: 5-FU 70 mg/kg i.p. at day 3 and 6; paeonol 1 mg per mouse oral twice a day for 21 days
Description: Synergy effect of paeonol in combination with anti-cancer drug, 5-fluorouracil (5-FU) was investigated. For the induction of primary tumor, B16BL6 melanoma cells (1×10^6) suspended in 0.2 ml of PBS were subcutaneously injected into C57BL6 female mice (SLC Co., Japan; 6 week-old, 20-25 g of body weight) adapted for 1 week. […] The size of tumor was measured once per 1-2 days for 21 days after injecting cancer cells and then the volume of tumor was calculated in accordance with the following equation, (width)^2×(length)×0.52.

B16BL6 melanoma cells [2] = assay: Lifetime elongation, paeonol in combination with 5-FU; type: in vivo, mouse; details: after 22 days, n=7
Description: Effects of paeonol on lifetime elongation of tumor-induced mice were investigated.
(§1) For the induction of primary tumor, B16BL6 melanoma cells (1×10^6) suspended in 0.2 ml of PBS were subcutaneously injected into C57BL6 female mice (SLC Co., Japan; 6 week-old, 20-25 g of body weight) adapted for 1 week.
In 5-FU & paeonol treated group, 70 mg/kg per mouse of 5-FU was intraperitoneally injected at 3 day and 6 day after injecting cancer cells, and 1 mg per mouse of paeonol dissolved in 0.2 ml of 20% ethanol was orally administrated twice a day for 21 days after injecting cancer cells. In 5-FU treated group, 70 mg/kg per mouse of 5-FU was treated in the same manner as 5-FU & paeonol treated group. In the other hand, 0.2 ml of 20% ethanol was also orally administrated into control group and 5-FU treated group in the same manner as 5-FU & paeonol treated group.

angiogenesis = assay: Mouse Matrigel model of angiogenesis (hemoglobin in Matrigel); type: in vivo; details: oral 0.5 mg per mouse twice a day (1 mg/day) for 4 days
Description: Effects of oral administration of paeonol on angiogenesis were quantitatively investigated in mouse Matrigel model. […] 0.5 mg of the above isolated paeonol was dissolved in 0.2 ml of 20% ethanol, and then 0.5 mg per mouse of paeonol (1 mg/day) was orally administrated into the treated group (n=8) twice a day for 4 days. In the other hand, 0.2 ml of 20% ethanol was also orally administrated into the control group (n=8) in the same manner as treated group. On the fifth day of oral administration, Matrigel was separated from excised skin of each mouse, and the level of hemoglobin in the Matrigel was measured in order to determine the inhibition of angiogenesis quantitatively.

B16BL6 melanoma cells [3] = assay: Growth of solid tumor in B16BL6 melanoma-injected mice; type: in vivo, mouse; details: oral 1 mg per day for 17 days; compared with control group
Description: Effects of administering the present composition comprising paeonol on the growth of solid tumor were investigated. For the induction of primary tumor, B16BL6 melanoma cells (1×10^6) suspended in 0.2 ml of PBS ([…]) were subcutaneously injected into C57BL6 female mice (SLC Co., Japan; 6 week-old, 20-25 g of body weight) adapted for 1 week. 0.5 mg of the above isolated paeonol was dissolved in 0.2 ml of 20% ethanol, and then 0.5 mg per mouse of paeonol (1 mg/day) was orally administrated into the treated group (n=7) twice a day for 17 days after injecting cancer cells. In the other hand, 0.2 ml of 20% ethanol was also orally administrated into the control group (n=7) in the same manner as treated group. The size of tumor was measured once per 1-2 days for 17 days after injecting cancer cells and then the volume of tumor was calculated in accordance with the following equation, (width)^2×(length)×0.52.

B16BL6 melanoma cells [4] = assay: Lifetime elongation of tumor-induced mice; type: in vivo, mouse; details: after 22 days; oral 1 mg/day; n=7
Description: Effects of the present composition comprising paeonol on lifetime elongation of tumor-induced mice were investigated.
as §1
0.5 mg of the above isolated paeonol was dissolved in 0.2 ml of 20% ethanol, and then 0.5 mg per mouse of paeonol (1 mg/day) was orally administrated into the treated group (n=7) twice a day for 22 days after injecting cancer cells. In the other hand, 0.2 ml of 20% ethanol was also orally administrated into the control group (n=7) in the same manner as treated group.

B16BL6 melanoma cells [5] = assay: Tumor metastasis into lung after intravenous injection of melanoma cells; type: in vivo, mouse
Description: Inhibitory effects of the present composition comprising paeonol on tumor metastasis in tumor-induced mice were investigated. […] 0.25 mg of the above isolated paeonol was dissolved in 0.2 ml of 20% ethanol, and then 0.25 mg per mouse of paeonol (0.5 mg/day) was orally administrated into the treated group (n=6) twice a day for 14 days after injecting cancer cells. In the other hand, 0.2 ml of 20% ethanol was also orally administrated into the control group (n=6) in the same manner as treated group. After 14 days, mice were dissected, and then the numbers of colonies, which metastasized into lung, were counted.

[6] = test system: human lung carcinoma cell line H460; assay: Radiosensitization, clone formation of lung carcinoma cell line H460; type: cell-based
Description: […] At 7 day after irradiation, the clone formation (%) of each groups were measured and then the survival rates of each groups were compared with each other. Irradiation with high dose of radiation into cancer cell line prevents clone formation.

[7] = test system: uterine carcinoma cell line HeLa; assay: Radiosensitization, clone formation of uterine carcinoma cell line HeLa; type: cell-based, human
Description: […] At 7 day after irradiation, the clone formation (%) of each groups were measured and then the survival rates of each groups were compared with each other.

[8] = test system: mouse lung carcinoma cell line, LLC (Lewis lung carcinoma); assay: Radiosensitization in LLC-transplanted mice, tumor growth rate; type: in vivo; details: for tumor growth rate went down as compared with control group: 5 mg/kg oral
Description: Effect of treatment of paeonol during radiation into lung carcinoma cell line-transplanted animal on radiosensitization was investigated. 1×10^6 of mouse lung carcinoma cell line, LLC (Lewis lung carcinoma) cell were suspended in 0.2 ml of PBS, and then were injected into left leg of mouse in order to induce the tumor. LLC-transplanted mice were classified into 4 groups such as control group (n=10), irradiation-treated group (n=10), paeonol-treated group (n=10), and irradiation & paeonol-treated group (n=10). […] For control group and irradiation group, 20% ethanol was orally administered in the same manner as paeonol-treated group. […] The sizes (width, length) of tumor were measured for 30 days at an interval of 2 or 3 days, and then the volumes of tumor were calculated by the following equation, (width)^2×(length)×0.52. The tumor growth rates were also calculated by converting into the time which it takes for tumor volume to be 2000 mm^3.

[9] = test system: mouse lung carcinoma cell line, LLC (Lewis lung carcinoma); assay: Radiosensitization in LLC-transplanted mice, survival; type: in vivo; details: for survival of mice: 5 mg/kg oral
Description: Effect of treatment of paeonol during radiation into lung carcinoma cell line-transplanted animal on radiosensitization was investigated.
1×10^6 of mouse lung carcinoma cell line, LLC (Lewis lung carcinoma) cell were suspended in 0.2 ml of PBS, and then were injected into left leg of mouse in order to induce the tumor. LLC-transplanted mice were classified into 4 groups such as control group (n=10), irradiation-treated group (n=10), paeonol-treated group (n=10), and irradiation & paeonol-treated group (n=10).
After the volumes of tumor were about 100-200 mm^3 (6-7 day after LLC injection), 5 Gy of ^60Co radiation was irradiated to irradiation-treated group and irradiation & paeonol-treated group three times at an interval of 2 or 3 days.
After the existence of tumor was detected by touching with hand (4 day after LLC injection), 5 mg/kg of paeonol dissolved in 20% ethanol was orally administered into paeonol-treated group and irradiation & paeonol group once a day for 20 days. For control group and irradiation group, 20% ethanol was orally administered in the same manner as paeonol-treated group.
Enhancing effects of paeonol in combination with radiation on efficacy of radiotherapy was determined by comparing both tumor growth rates and mouse survival rates of 4 groups with each other groups.

B16BL6 melanoma cells [10] = assay: Radiosensitization in melanoma-transplanted mice, tumor volume; type: in vivo, mouse; details: for decrease of tumor volume compared with control group: paeonol-treated group, no irradiation
Description: Effect of treatment of paeonol during radiation into melanoma-transplanted animal on radiosensitization was investigated. In order to induce primary tumor, B16BL6 melanoma cells (1×10^6) suspended in 0.2 ml of PBS was subcutaneously injected into C57BL6 female mice (SLC Co., Japan; 6 week-old […]) adapted for 1 week. Melanoma-transplanted mice were classified into 6 groups: control group (n=10), irradiation group (n=10), paeonol-treated groups (0.5 or 1 mg/kg per day) (n=10), and irradiation & paeonol-treated groups (0.5 or 1 mg/kg per day) (n=10), and then it was observed whether the combinational treatment of irradiation and paeonol enhances the radiosensitization of melanoma-transplanted animal. […] For control group and irradiation group, 20% ethanol was orally administered in the same manner as paeonol-treated group. The sizes (width, length) of tumor were measured for 30 days at an interval of 2 or 3 days, and then the volumes of tumor were calculated by the following equation, (width)^2×(length)×0.52.

[11] = test system: normal human lung cell (BEAS-2B); assay: Cytotoxicity test by MTT assay, normal lung cell; type: cell-based
Description: (§2) In order to examine the cytotoxicity of paeonol, 2×10^5 of normal human lung cell (BEAS-2B), human lung carcinoma cell (NCI-H460), human uterine carcinoma cell (HeLa) were treated with various concentrations (0.25, 0.5, 1, 2, 10 μg/ml) of paeonol for 24 hours, and then viabilities of each cells were measured by MTT assay.

[12] = test system: human lung carcinoma cell (NCI-H460); assay: Cytotoxicity test by MTT assay, lung carcinoma cell; type: cell-based
Description: as §2

[13] = test system: human uterine carcinoma cell (HeLa); assay: Cytotoxicity test by MTT assay, uterine carcinoma cell; type: cell-based
Description: as §2

[14] = Acute toxicity test in animal; type: in vivo; details: dosage of 100 mg/kg
[15] = Radiation 0 Gy, paeonol 1 μg/ml, 7 day
[16] = Radiation 0 Gy, paeonol 2 μg/ml, 7 day
[17] = Radiation 1 Gy, paeonol 2 μg/ml, 7 day after irradiation
[18] = Radiation 2 Gy, paeonol 1 μg/ml, 7 day after irradiation
[19] = Radiation 2 Gy, paeonol 2 μg/ml, 7 day after irradiation
[20] = Radiation 3 Gy, paeonol 1 μg/ml, 7 day after irradiation
[21] = Radiation 3 Gy, paeonol 2 μg/ml, 7 day after irradiation
[22] = 10 μg/ml of paeonol, 24 hours, MTT

O=c1[nH]cc(F)c(=O)[nH]1 [Compound 5-FU, 5-fluorouracil]
inhibition of tumor growth compared with control group (B16BL6 melanoma cells [1]): 50%
survival rate (B16BL6 melanoma cells [2]; 5-FU 70 mg/kg i.p. at day 3 and 6, paeonol 1 mg per mouse oral twice a day): 14%
number of mice survived (B16BL6 melanoma cells [2]): one

COc1ccc(C(C)=O)c(O)c1 [paeonol]
inhibition of angiogenesis (angiogenesis): about 67%
hemoglobin content of treated group as compared with control group (angiogenesis; Matrigel with bFGF and heparin): 33%
inhibition of tumor growth (B16BL6 melanoma cells [3]): 48%
number of mice survived (B16BL6 melanoma cells [4]): three
survival rate (B16BL6 melanoma cells [4]): 43%
colonies metastasized into lung per mouse (B16BL6 melanoma cells [5]; oral 0.25 mg per mouse twice a day (0.5 mg/day) for 14 days, control 213±60): 132±80 colonies
inhibition of metastasis into lung (B16BL6 melanoma cells [5]; oral 0.5 mg/day for 14 days): 38%
decrease of clone formation compared with control group irradiated with 3 Gy ([6]; 1 μg/ml of paeonol): 16%
decrease of clone formation compared with control group irradiated with 3 Gy ([6]; 2 μg/ml of paeonol): 31%
Clone formation (%) [6, 15]: 100%
Clone formation (%) [6, 16]: 100%
Clone formation (%) [6, 17]: 71.1%
Clone formation (%) ([6]; Radiation 1 Gy, paeonol 12 μg/ml, 7 day after irradiation): 72.5%
Clone formation (%) [6, 18]: 46.4%
Clone formation (%) [6, 19]: 43.3%
Clone formation (%) [6, 20]: 25.8%
Clone formation (%) [6, 21]: 21.2%
decrease of clone formation compared with control group irradiated with 3 Gy ([7]; 1 μg/ml of paeonol): 23%
decrease of clone formation compared with control group irradiated with 3 Gy ([7]; 2 μg/ml of paeonol): 39%
Clone formation (%) [7, 15]: 100%
Clone formation (%) [7, 16]: 100%
Clone formation (%) ([7]; Radiation 1 Gy, paeonol 1 μg/ml, 7 day after irradiation): 73.4%
Clone formation (%) [7, 17]: 72.8%
Clone formation (%) [7, 18]: 45.5%
Clone formation (%) [7, 19]: 44.7%
Clone formation (%) [7, 20]: 12.3%
Clone formation (%) [7, 21]: 10.9%
tumor growth rate went down as compared with control group ([8]; irradiation & paeonol-treated group, 5 Gy three times): 1.4 fold
Tumor growth rate (Time which it takes for tumor volume to be 2000 mm^3) ([8]; irradiation & paeonol-treated group: 5 Gy 60Co three times, paeonol 5 mg/kg oral once a day for 20 days, control 16, irradiation alone 19): 22 days
Tumor growth rate (Time which it takes for tumor volume to be 2000 mm^3) ([8]; paeonol-treated group, 5 mg/kg oral once a day for 20 days, no irradiation, control 16): 19 days
tumor growth rate went down as compared with control group ([8]; paeonol-treated group, no irradiation): 1.2 fold
increase of survival rate compared with control group ([9]; irradiation & paeonol-treated group): about 2 times
survival of mice ([9]; irradiation & paeonol-treated group, 5 Gy three times, control 42, irradiation alone 60): 78 days
survival of mice ([9]; paeonol-treated group, no irradiation, control 42): 69 days
decrease of tumor volume compared with control group, maximum (B16BL6 melanoma cells [10]; irradiation & paeonol-treated groups (0.5 or 1.0 mg/kg), 5 Gy at 4 and 6 day, irradiation alone 33.1%): ≤ 58.9%
decrease of tumor volume compared with control group (B16BL6 melanoma cells [10]; 0.5 mg/kg oral once a day): 6.4%
decrease of tumor volume compared with control group (B16BL6 melanoma cells [10]; 1.0 mg/kg oral once a day): 9.3%
cytotoxicity [11, 22]: 6%
LD50 ([11]; human): did not show enough toxicity to calculate LD50
cytotoxicity [12, 22]: 18%
LD50 ([12]; human): did not show enough toxicity to calculate LD50
cytotoxicity [13, 22]: 15%
LD50 ([13]; human): did not show enough toxicity to calculate LD50
side effects during administration [14]: no side effects
